Measurements taken from patent US11867698B2, “Fluorogenic pH sensitive dyes and their method of use” (Life Technologies Corporation, priority 2006, dated 2024).

How the values were obtained:
[1] = Fluorimetric pH titration of the sensor molecules in aqueous buffers; type: physicochemical; conditions: for λem / λex / pK / pKa: aqueous buffers; for λem / λex / pK: around 10 μmol/L; for S = F/F0: fluorescent response to the pH changes; for pK: fluorimetric pH titration
Protocol: Example 201. Fluorimetric pH titration. The study of the fluorescent response of the sensor molecules to changes in pH was performed in solution in aqueous buffers (in concentrations around 10 μmol/L).
The resulting curve has a pronounced maximum at pH 7.2 (FIG. 2).

[2] = Fluorescent pH response of transferrin conjugates labeled with pH sensing dyes; type: physicochemical; conditions: transferrin conjugate of the labeling sensor
Protocol: Labeling of transferrin with pH sensing dyes. All materials are from Invitrogen unless otherwise stated. Dissolve transferrin from human serum (Sigma, T4132) in 0.1 M NaHCO3, pH 8.3, to a concentration of 10 mg/mL. Make a 10 mg/mL solution of the succinimidyl ester of the dye in dry DMSO and sonicate briefly to aid in dissolution of the dye. Add a 10 to 30-fold molar excess of the reactive dye solution to the transferrin solution dropwise while stirring. Note that the volume of dye added depends on the specific dye and the amount of transferrin to be labeled. Protect the reaction vessel from light and stir for ˜1 hour at RT. Purify the conjugate on a P-30M gel filtration column (BioRad, 150-4150) in PBS, pH 7.2. Centrifuge the conjugate at 19,000 rpm for 20 minutes to remove aggregates, if present. Determine the degree of labeling by measuring A560 nm/A280 nm.

[3] = Fluorescence response of ratiometric dextran conjugates versus pH; type: physicochemical; conditions: 50 mM phosphate buffers
[4] = system: white blood cells (granualcytes); experiment: Assay of phagocytic activity in whole blood using bioparticles labeled with pH sensing dyes; type: cell-based
Protocol: Assay of phagocytic activity using bioparticles labeled with pH sensing dyes. A whole blood sample was collected in a sodium heparin tube. Aliquots of whole blood (100 uL) were combined with labeled E. coli (20 uL of 10 mg/mL) in 12×75 mm flow cytometry Falcon tube, and the samples were incubated in a 37° C. water bath for 15 minutes. A negative control was put on ice. After incubation, the tubes were placed in a rack and the red blood cells were lysed with 1 mL of an ammonium chloride lysis solution (0.187 M NH4Cl, 10 mM KHCO3, 0.095 mM EDTA) for 10 minutes at room temperature. The samples were centrifuged at 1200 rcf for 5 minutes, the supernatants were removed, and the cell pellets were resuspended in HBSS buffer. The resuspended cells were put into a 96 well microplate, 100 uL per well, and the plate was spun to settle the cells to the bottom of the wells. Imaging was done on a Zeiss 200M inverted fluorescence microscope using a 40× objective, TRITC filters, a CoolSnap HQ (Photometrics) ccd camera, and Metamorph (Universal Imaging Corp.) acquisition software. […] This would give an overestimation of phagocytic activity in a plate reader experiment, unless other steps were taken such as including a quencher dye.

HeLa cells = experiment: Staining of endocytic recycling compartment using transferrin conjugated with pH sensing dye; type: cell-based; conditions: transferrin conjugate 20 ug/mL, 45 minutes, 37 C, FIG. 3
Protocol: Staining of endocytic recycling compartment using transferrin conjugated with pH sensing dye (compound 129). HeLa (ATCC) cells were plated in a 96 well microplate at 10,000 cells per well in McCoy 5A media with 5% FBS and 4 uM deferoxamine (Sigma). Cells were grown overnight and then rinsed 2 times in DMEM with-out phenol red plus 0.5% FBS. Transferrin conjugates were applied in same media at 20 ug/mL for 45 minutes at 37 C. Cells were then rinsed 1 time with DMEM and imaged on a Zeiss 200M inverted fluorescence microscope using a 40× objective, TRITC filters, a CoolSnap HQ (Photometrics) ccd camera, and Metamorph (Universal Imaging Corp.) acquisition software.

[5] = pH titration of labeled E. coli bioparticles; type: physicochemical; conditions: dye labeled E. coli bioparticles 0.2 mg/mL, 50 mM potassium phosphate buffer, pH 1 to 10, FIG. 4
Protocol: Example 303: Labeling E. Coli bioparticles for use in assays of phagocytosis. Escherichia coli Strain K12, lyophilized cells (Sigma, EC1-5G) were resuspended in PBS at 20 mg/mL and vortexed vigorously and sonicated for several minutes. The suspensions were divided into 100 uL aliquots spun down at 10,000×g for 2 minutes, supernatants removed and resuspended in 100 uL of PBS. This was done twice to clean up the E. coli. The amine reactive SE versions of the novel pH dyes were made up in DMSO at concentration of 10 mM. For labeling, 100 uL of the E. coli suspension was combined with 100 uL of the dye stock solution, so 2 mg of E. coli was labeled with 1 umole of dye. The labeling was carried out at 37 C for 45 minutes followed by the same spin down and resuspension procedure as described above 5 times to remove free dye. The final resuspension was 10 mg/mL. pH Titration of labeled E. Coli. The fluorescence of the labeled E. coli was measured at a range of pH values in 50 mM potassium phosphate buffer, from pH 1 to 10, using a Flexstation II (Molecular Devices) plate reader. The conjugates were diluted 1:50 into the potassium phosphate buffers, so the final concentration of the labeled bioparticles was 0.2 mg/mL.

neurons = experiment: Detection of neuronal cells in mixed neuron/astroglial culture; type: cell-based, rat
Protocol: Astroglial feeder layers were established for one week in culture on glass bottomed culture dishes, 35 mm diameter, coated with Poly-L-Lysine. Neurons from embryonic day 18 rat hippocampi were dissociated in culture medium, and seeded onto the feeder layers at a density of 25-35,000 cells per milliliter, two milliliters per dish, and allowed to grow in neuronal culture medium plus mitotic inhibitors to prevent glial proliferation.
Cells were pre-stained for 15 minutes with 200 ng/mL Hoercsht to visualize DNA in the nuclei, and 50 ng/mL calcien AM ester to visualize cytoplasm by adding 1000×DMSO stocks of these compounds to the cells in complete medium, then returning them to the cell culture incubator for fifteen minutes at 37 degrees Celsius. Cells were removed, and the medium gently poured off. The cells were immediately placed in 5 uM Compound 129, diluted from a 1 mM DMSO stock into normal saline plus 20 mM HEPES and 20 mM glucose, final pH set to 7.4 with NaOH. The cells were incubated in labeling solution for ten minutes at room temperature, and then gently washed twice with saline (above) minus dye for imaging.

[6] = Quantum yield determination relative to pH-insensitive standard 180; type: physicochemical
Protocol: Example 202. Quantum yield determination. Quantum yields at pH=2.0 and pH=10.0 were determined for the compounds 178 and 179 relative to the pH-insensitive standard 180 by comparing integrated absorption and emission spectral curves.
Compounds 178 and 179 were prepared by treatment of the corresponding succinimidyl esters 111 and 129 with methoxyethylamine. The reference standard 180 was obtained in the reaction of commercial succinimidyl 5-carboxy-tetramethylpdodamine (TAMRA-5-SE) with the same amine.

Row | λem [1] [nm] | λex [1] [nm] | S = F/F0 [1] | pK [1] | Compound | also measured
1 | 424 | 349 | 270 | 5.4 | CCOC(=O)CCCN(CC)c1cc(OC)c(-c2cc3ccc(C(=O)OC)cc3[nH]2)cc1OC [Compound 157] | –
2 | 611 | 587 | 88 | 7.2 | CCOC(=O)CCCN(CC)c1cc(OC)c(C2=c3cc4c5c(c3Oc3c2cc2c6c3CCCN6CCC2)CCC[N+]=5CCC4)cc1N(C)C [Compound 162] | –
3 | 517 | 490 | 200 | 7.2 | CN(C)C=Nc1ccc(-c2c3ccc(=O)cc-3oc3cc(O)ccc23)c(C(=O)O)c1 [Compound 173] | pH of the maximum of the titration curve ([1]; FIG. 2): 7.2; pKa ([1]; FIG. 2, read-out: pKa, drop in fluorescence (amidine titration curve)): ~8; pKa ([1]; pKa, increase in fluorescence (fluorescein titration curve), FIG. 2): ~5.5
4 | 576 | 550 | 10 | 7.7 | CN(C)C=Nc1ccc(-c2c3ccc(=[N+](C)C)cc-3oc3cc(N(C)C)ccc23)c(C(=O)O)c1 [Compound 175] | –

Continued, compound first:

Row | Compound | λem [1] [nm] | λex [1] [nm] | S = F/F0 [1] | pK [1] | also measured
5 | CCN(CCCC(=O)OC)c1cc(OC)c(-c2c3ccc(N(C)C)cc3[o+]c3cc(N(C)C)ccc23)cc1N(C)C [Compound 127, Methyl 4-((2-dimethylamino)-5-methoxyphenyl-4-tetramethylrhodaminyl)(ethyl)amino) butanoate] | 587 | 561 | 130 | 7.3 | fluorescence upon protonation (titration curve) ([1]; FIG. 1): significant increase in fluorescence upon protonation
6 | CCN(CCCC(=O)ON1C(=O)CCC1=O)c1cc(OC)c(-c2c3ccc(N(C)C)cc3[o+]c3cc(N(C)C)ccc23)cc1N(C)C [Compound 129, Succinimidyl 4-((2-Dimethylamino)-5-methoxyphenyl-4-tetramethylrhodaminyl)(ethyl)amino) butanoate] | – | – | – | – | pKa [2]: 4.2; fluorescence in the red channel versus pH ([3]; 10,000 MW dextran conjugate with rhodamine green, 0.1 mg/mL, ex 540, em 600, FIG. 10A): fluorescence does change with pH; fluorescence in the red channel versus pH ([3]; dextran conjugate with rhodamine green at a higher degree of label than Compound 129, 0.1 mg/mL, ex 540, em 600, FIG. 9A): fluorescence does change with pH; fluorescence of cells by flow cytometry ([4]; E. coli labeled with the dye, relative to unlabeled E. coli and iced negative control, FIG. 5): increase in fluorescence; staining seen by fluorescence microscopy ([4]; labeled E. coli, whole blood, 37° C., 15 minutes, FIG. 6): bright vesicular staining of the phagosomes filled with the engulfed E. coli within the cells; staining pattern (HeLa cells): characteristic perinuclear staining pattern of the endocytic recycling compartment; fluorescence intensity versus pH [5]: large increase in fluorescence at acidic pHs; uptake by glial cells shown by acidification of the preparation (neurons): had in fact taken up; labeling of neurons relative to astrocytes (neurons; 5 uM, ten minutes, room temperature, pH 7.4, TRITC channel): appear bright over the dimly labeled astrocytes
7 | CCN(CCCC(=O)NCCCCCC(=O)ON1C(=O)CCC1=O)c1cc(OC)c(-c2c3ccc(=[N+](C)C)cc-3oc3cc(N(C)C)ccc23)cc1N(C)C [Compound 139] | 588 | 556 | 80 | 5.6 | S = F/F0 [2]: 15
8 | CCN(CCCC(=O)NCCCCCN)c1cc(OC)c(-c2c3ccc(=[N+](C)C)cc-3oc3cc(N(C)C)ccc23)cc1N(C)C [Compound 141] | 588 | 560 | 65 | 7.4 | –
9 | CCN(CC)c1cc2occ(-c3ncc(C(=O)O)o3)c2cc1OC [Compound 152] | 393 | 325 | – | – | –
10 | CCOC(=O)CCCN(CC)c1cc(OC)c(C2=c3cc4c5c(c3Oc3c2cc2c6c3CCCN6CCC2)CCC[N+]=5CCC4)cc1OC [Compound 155] | 611 | 586 | 53 | 5.0 | –
11 | CCN(CCCC(=O)NCCOC)c1cc(OC)c(-c2c3ccc(=[N+](C)C)cc-3oc3cc(N(C)C)ccc23)cc1OC [Compound 178] | – | – | – | – | pKa ([6]; aqueous buffers, Table 4): 4.6; QE (pH = 2.0) ([6]; relative quantum yield, pH = 2.0, relative to standard 180): 0.78; QE (pH = 10.0) ([6]; relative quantum yield, pH = 10.0, relative to standard 180): 0.008
12 | CCN(CCCC(=O)ON1C(=O)CCC1=O)c1cc(O)c(-c2c3ccc(=[N+](C)C)cc-3oc3cc(N(C)C)ccc23)cc1OC.[Cl-] [Compound 189, N-(6-(dimethylamino)-9-(4-((4-(2,5-dioxopyrrolidin-1-yloxy)-4-oxobutyl)(ethyl)amino)-2-hydroxy-5-methoxyphenyl)-3H-xanthen-3-ylidene)-N-methylmethanaminium chloride] | – | – | – | – | fluorescence intensity versus pH [5]: large increase in fluorescence at acidic pHs
13 | Ethyl 4-((2-dimethylamino)-5-methoxyphenyl-4-tetramethylrhodaminyl)(ethyl)amino) butanoate [Compound 133] | 587 | 561 | 180 | 7.3 | –
